Reference: the supplement of paper PMC11061612

How the values were obtained:
Test in all cases: Bliss excess, mean over the matrix (fraction); higher = more synergy
[1] = tested on: HCT-15 (Colorectal Carcinoma)
Method in brief: (§1)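 After 24 hours at 37°C and 5% CO2 in 1536-well plates, cells in DMEM/F12 or RPMI plus 10% FBS received two-drug dose matrices for 72 hours. Viability came from CellTiter-Glo 2.0 luminescence and was scaled as inhibition, anchored at 0 by vehicle wells and at 1 by blank wells. Combination Emax is taken as the second-highest inhibition in the matrix, and Bliss excess as the observed combination effect less EA + EB − EA·EB, with EA and EB the single-agent effects.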

[2] = tested on: HSC-39 (Gastric Carcinoma)
Method in brief: as §1

[3] = tested on: WM278 (Melanoma)
Method in brief: as §1

[4] = tested on: GB-1 (Glioblastoma)
Method in brief: as §1

[5] = tested on: SU-DHL-10 (B-Cell Non-Hodgkin's Lymphoma)
Method in brief: as §1

[6] = tested on: REH (B-Lymphoblastic Leukemia)
Method in brief: as §1

[7] = tested on: SK-PN-DW (Other Solid Carcinomas)
Method in brief: as §1

[8] = tested on: GP5d (Colorectal Carcinoma)
Method in brief: as §1

[9] = tested on: WM793B (Melanoma)
Method in brief: as §1

[10] = tested on: MKN45 (Gastric Carcinoma)
Method in brief: as §1

[11] = tested on: SF539 (Glioblastoma)
Method in brief: as §1

[12] = tested on: LN-229 (Glioblastoma)
Method in brief: as §1

[13] = tested on: IST-MES1 (Mesothelioma)
Method in brief: as §1

[14] = tested on: SF268 (Low Grade Glioma)
Method in brief: as §1

[15] = tested on: PSN1 (Pancreatic Carcinoma)
Method in brief: as §1

[16] = tested on: NCI-H446 (Small Cell Lung Carcinoma)
Method in brief: as §1

[17] = tested on: RKN (Other Solid Carcinomas)
Method in brief: as §1

[18] = tested on: NCI-H23 (Lung Adenocarcinoma)
Method in brief: as §1

[19] = tested on: MFE-280 (Endometrial Carcinoma)
Method in brief: as §1

[20] = tested on: FADU (Head and Neck Carcinoma)
Method in brief: as §1

Row | Structure (SMILES) | Bliss excess [1] | Bliss excess [2] | Bliss excess [3] | Bliss excess [4] | Bliss excess [5] | Bliss excess [6] | Bliss excess [7] | Bliss excess [8] | Bliss excess [9] | Bliss excess [10] | Bliss excess [11] | Bliss excess [12] | Bliss excess [13] | Bliss excess [14] | Bliss excess [15] | Bliss excess [16] | Bliss excess [17] | Bliss excess [18] | Bliss excess [19] | Bliss excess [20]
1 | C=CCn1c(=O)c2cnc(Nc3ccc(N4CCN(C)CC4)cc3)nc2n1-c1cccc(C(C)(C)O)n1 [AZD1775] + C1CN(CCC1(C(=O)N[C@@H](CCO)C2=CC=C(C=C2)Cl)N)C3=NC=NC4=C3C=CN4 [Capivasertib] (first compound max 3 µM, partner max 3 µM) | 0.0159 | 0.0067 | -0.0468 | -0.0211 | 0.0484 | 0.0008 | 0.0265 | -0.0274 | -0.0157 | -0.0736 | -0.0878 | -0.062 | -0.0056 | -0.009 | -0.0238 | 0.0213 | -0.0476 | -0.0135 | -0.0055 | 0.0615
2 | Cc1c2c(nn1C)CSCc1cc(n(C)n1)CSc1cc(c3ccccc3c1)OCCCc1c(C(=O)O)n(C)c3c-2c(Cl)ccc13 [AZD5991] + Cn1cnc2c(F)c(Nc3ccc(Br)cc3Cl)c(C(=O)NOCCO)cc21 [Selumetinib] (first compound max 1 µM, 7x7, partner max 3 µM) | 0.0116 | 0.0118 | 0.0368 | -0.0299 | -0.021 | -0.0302 | -0.0271 | 0.0017 | -0.0053 | -0.0643 | -0.0344 | 0.0485 | -0.0466 | -0.0199 | 0.0011 | 0.0241 | -0.0147 | 0.0495 | 0.0226 | 0.0722
3 | COc1nnc2ccc(N3CCC(c4ccc(OCCN5CCN(C)C(=O)[C@H]5C)cc4)CC3)nn12 [AZD5153] + CC1(C)CCC(CN2CCN(c3ccc(C(=O)NS(=O)(=O)c4ccc(NCC5CCOCC5)c([N+](=O)[O-])c4)c(Oc4cnc5[nH]ccc5c4)c3)CC2)=C(c2ccc(Cl)cc2)C1 [Venetoclax] (first compound max 1 µM, 7x7, partner max 1 µM) | -0.0242 | 0.0439 | -0.0188 | -0.062 | -0.0221 | -0.136 | -0.0998 | -0.0741 | -0.0525 | -0.0389 | -0.0797 | -0.0496 | -0.0237 | -0.128 | -0.0649 | 0.0507 | -0.0369 | -0.0473 | -0.0138 | -0.0492
4 | CN(C)CCCOc1ccc(-c2ccc3ncc4c(c3c2)n(C2CCOCC2)c(=O)n4C)cn1 [AZD0156] + C=CCn1c(=O)c2cnc(Nc3ccc(N4CCN(C)CC4)cc3)nc2n1-c1cccc(C(C)(C)O)n1 [AZD1775] (first compound max 1 µM, partner max 1 µM) | 0.0622 | -0.0144 | -0.0331 | -0.0219 | -0.0088 | -0.0158 | -0.0282 | -0.0369 | -0.0081 | -0.0774 | -0.0023 | -0.0831 | -0.0624 | -0.0665 | -0.0242 | -0.0399 | -0.0683 | -0.0406 | 0.0145 | 0.0316
5 | CS(=O)(=O)CCNCc1ccc(-c2ccc3ncnc(Nc4ccc(OCc5cccc(F)c5)c(Cl)c4)c3c2)o1 [Lapatinib] + C[C@@H](Oc1cc(-c2cnn(C3CCNCC3)c2)cnc1N)c1c(Cl)ccc(F)c1Cl [Crizotinib] (first compound max 10 µM, 7x7, partner max 10 µM) | -0.0205 | -0.0117 | -0.0284 | -0.11 | -0.0087 | -0.0347 | -0.0722 | -0.0036 | -0.0192 | -0.0063 | -0.0621 | -0.0396 | -0.0937 | -0.056 | -0.0443 | -0.0344 | -0.05 | -0.0265 | -0.0226 | -0.0302
6 | Cn1cnc2c(F)c(Nc3ccc(Br)cc3Cl)c(C(=O)NOCCO)cc21 [Selumetinib] + C=CCn1c(=O)c2cnc(Nc3ccc(N4CCN(C)CC4)cc3)nc2n1-c1cccc(C(C)(C)O)n1 [AZD1775] (first compound max 10 µM, partner max 1 µM) | -0.0198 | -0.0725 | -0.0183 | -0.0522 | 0.0359 | -0.0424 | 0.0095 | -0.0796 | 0.004 | -0.0765 | -0.025 | -0.0115 | -0.0955 | -0.125 | -0.0321 | -0.0441 | -0.0397 | 0.0223 | -0.0485 | -0.0284
7 | CC1(C)CCC(CN2CCN(c3ccc(C(=O)NS(=O)(=O)c4ccc(NCC5CCOCC5)c([N+](=O)[O-])c4)c(Oc4cnc5[nH]ccc5c4)c3)CC2)=C(c2ccc(Cl)cc2)C1 [Venetoclax] + C1CN(CCC1(C(=O)N[C@@H](CCO)C2=CC=C(C=C2)Cl)N)C3=NC=NC4=C3C=CN4 [Capivasertib] (first compound max 1 µM, 7x7, partner max 3 µM) | -0.0383 | -0.0104 | -0.0699 | -0.0038 | -0.0078 | 0.0111 | -0.0892 | -0.0548 | -0.029 | -0.0205 | -0.0189 | -0.0394 | -0.033 | -0.0095 | -0.0707 | -0.0257 | -0.0469 | -0.0081 | -0.0377 | -0.0382
8 | COc1cc2ncnc(Nc3ccc(F)c(Cl)c3)c2cc1OCCCN1CCOCC1 [Gefitinib] + CC(C)n1c(=O)n(C)c2cnc3cc(F)c(-c4ccc(OCCCN5CCCCC5)nc4)cc3c21 [AZD1390] (first compound max 10 µM, 7x7, partner max 0.3 µM) | -0.0533 | 0.0185 | -0.0728 | -0.0815 | -0.0254 | -0.0498 | -0.0293 | -0.0359 | -0.0816 | -0.046 | -0.0347 | -0.077 | -0.0524 | -0.0727 | -0.0338 | -0.0082 | -0.0646 | -0.0466 | -0.0676 | -0.0619
9 | COc1nnc2ccc(N3CCC(c4ccc(OCCN5CCN(C)C(=O)[C@H]5C)cc4)CC3)nn12 [AZD5153] + CCN(CCO)CCCOc1ccc2c(Nc3cc(CC(=O)Nc4cccc(F)c4)[nH]n3)ncnc2c1 [AZD2811] (first compound max 1 µM, 7x7, partner max 1 µM) | -0.0143 | -0.006 | -0.0654 | -0.0787 | -0.049 | -0.0891 | -0.0677 | -0.082 | -0.0567 | -0.01 | -0.0184 | 0.0112 | -0.0132 | -0.0592 | 0.0384 | -0.0481 | -0.0286 | -0.0412 | -0.0343 | -0.0529
10 | CC1(C)CCC(CN2CCN(c3ccc(C(=O)NS(=O)(=O)c4ccc(NCC5CCOCC5)c([N+](=O)[O-])c4)c(Oc4cnc5[nH]ccc5c4)c3)CC2)=C(c2ccc(Cl)cc2)C1 [Venetoclax] + COc1cc(Nc2ncc3c(n2)-c2ccc(Cl)cc2C(c2c(F)cccc2OC)=NC3)ccc1C(=O)O [Alisertib] (first compound max 1 µM, 7x7, partner max 10 µM) | -0.0034 | -0.103 | 0.0416 | -0.03 | 0.0409 | 0.22 | -0.127 | 0.0453 | -0.0223 | -0.0645 | 0.0396 | -0.041 | -0.0479 | 0.0151 | -0.0219 | -0.0775 | -0.0516 | 0.14 | -0.0266 | 0.0252
11 | Cc1cc2ncnn2cc1Nc1ncc2c(n1)n(C1CCOCC1)c(=O)n2C [AZD7648] + O=C(c1cc(Cc2n[nH]c(=O)c3ccccc23)ccc1F)N1CCN(C(=O)C2CC2)CC1 [Olaparib] (first compound max 10 µM, 7x7, partner max 10 µM) | 0.0666 | -0.0083 | -0.0309 | -0.0227 | -0.0164 | -0.0373 | 0.0223 | 0.0009 | -0.0136 | -0.0106 | -0.0236 | -0.0816 | -0.0592 | -0.0274 | -0.0315 | -0.0388 | -0.021 | -0.0059 | -0.0011 | 0.0107
12 | COc1cccc(OCCCN)c1-c1cc(Nc2cnc(C#N)cn2)n[nH]1 [Prexasertib] + CCc1c2c(nc3ccc(O)cc13)-c1cc3c(c(=O)n1C2)COC(=O)[C@]3(O)CC [SN-38] (first compound max 1 µM, 7x7, partner max 0.3 µM) | 0.051 | 0.0026 | -0.0479 | -0.0438 | 0.035 | -0.0054 | -0.0672 | -0.0173 | -0.0489 | -0.0493 | -0.0091 | -0.022 | -0.026 | 0.0097 | 0.0569 | 0.0756 | 0.134 | -0.0001 | 0.115 | -0.0233
13 | CC(=O)c1c(C)c2cnc(Nc3ccc(N4CCNCC4)cn3)nc2n(C2CCCC2)c1=O [Palbociclib] + Cn1cnc2c(F)c(Nc3ccc(Br)cc3Cl)c(C(=O)NOCCO)cc21 [Selumetinib] (first compound max 10 µM, 7x7, partner max 10 µM) | 0.0538 | -0.0069 | -0.0152 | -0.0016 | 0.0392 | -0.0229 | -0.0164 | -0.0062 | -0.0173 | -0.0092 | -0.0345 | 0.001 | -0.0799 | -0.0269 | 0.0226 | -0.0689 | -0.0279 | -0.0057 | -0.0255 | 0.115
14 | C[C@@H]1COCCN1c1cc(C2([S@](C)(=N)=O)CC2)nc(-c2ccnc3[nH]ccc23)n1 [AZD6738] + O=C(c1cc(Cc2n[nH]c(=O)c3ccccc23)ccc1F)N1CCN(C(=O)C2CC2)CC1 [Olaparib] (first compound max 10 µM, 7x7, partner max 10 µM) | 0.0151 | 0.025 | -0.0488 | 0.012 | -0.0235 | 0.0021 | 0.008 | -0.0092 | -0.0214 | -0.0683 | -0.0047 | -0.0713 | 0.0228 | 0.0011 | -0.0122 | 0.0602 | -0.007 | 0.0049 | 0.0368 | 0.0098
15 | Cc1cc2ncnn2cc1Nc1ncc2c(n1)n(C1CCOCC1)c(=O)n2C [AZD7648] + C[C@@H]1COCCN1C2=NC(=NC(=C2)C3(CC3)[S@](=N)(=O)C)C4=C5C=CNC5=NC=C4 [AZD6738] (first compound max 10 µM, 7x7, partner max 10 µM) | -0.0312 | 0.0166 | 0.0112 | -0.017 | -0.0398 | -0.0088 | 0.0154 | -0.0401 | -0.0352 | -0.0406 | -0.0166 | -0.0085 | 0.0176 | 0.0152 | -0.0939 | 0.0335 | 0.0086 | -0.0617 | 0.0174 | -0.0093
